In article PMC8431030, “In Vitro and In Silico Evaluation of New 1,3,4-Oxadiazole Derivatives of Pyrrolo[3,4-d]pyridazinone as Promising Cyclooxygenase Inhibitors” (International Journal of Molecular Sciences, 2021):

What was measured:
COX-1 = target: T1, COX-1 (Ovis aries, UniProt P05979); experiment: colorimetric COX peroxidase assay (Cayman […]), […] nm; type: biochemical; conditions: read-out: IC50 [μM] (SD) / COX-1
T1 construct: gene PTGS1; kit is understood to hold ovine COX-1
T1 sequence (P05979 25-600): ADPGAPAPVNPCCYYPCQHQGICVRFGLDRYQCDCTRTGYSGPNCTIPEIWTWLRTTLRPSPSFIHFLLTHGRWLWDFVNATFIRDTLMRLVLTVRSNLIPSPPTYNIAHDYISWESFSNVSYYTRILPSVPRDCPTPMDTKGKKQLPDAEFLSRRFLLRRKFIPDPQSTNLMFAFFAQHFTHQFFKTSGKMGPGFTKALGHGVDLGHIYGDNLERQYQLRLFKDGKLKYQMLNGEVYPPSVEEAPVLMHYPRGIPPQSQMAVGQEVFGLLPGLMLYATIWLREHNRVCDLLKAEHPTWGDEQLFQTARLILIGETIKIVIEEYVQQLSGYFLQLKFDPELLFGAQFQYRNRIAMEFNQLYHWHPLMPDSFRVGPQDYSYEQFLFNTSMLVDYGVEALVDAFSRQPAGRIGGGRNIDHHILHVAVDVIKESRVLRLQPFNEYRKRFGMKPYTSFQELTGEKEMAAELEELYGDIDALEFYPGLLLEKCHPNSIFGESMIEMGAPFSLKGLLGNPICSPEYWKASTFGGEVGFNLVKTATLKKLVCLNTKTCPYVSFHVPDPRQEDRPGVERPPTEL

COX-2 = target: T2, COX-2 (Homo sapiens, UniProt P35354); experiment: colorimetric COX peroxidase assay (Cayman […]), […] nm; type: biochemical; conditions: read-out: IC50 [μM] (SD) / COX-2
T2 construct: gene PTGS2; kit is understood to hold human recombinant COX-2 (docking used PDB 4M11, not the assay protein)
T2 sequence (P35354 18-604): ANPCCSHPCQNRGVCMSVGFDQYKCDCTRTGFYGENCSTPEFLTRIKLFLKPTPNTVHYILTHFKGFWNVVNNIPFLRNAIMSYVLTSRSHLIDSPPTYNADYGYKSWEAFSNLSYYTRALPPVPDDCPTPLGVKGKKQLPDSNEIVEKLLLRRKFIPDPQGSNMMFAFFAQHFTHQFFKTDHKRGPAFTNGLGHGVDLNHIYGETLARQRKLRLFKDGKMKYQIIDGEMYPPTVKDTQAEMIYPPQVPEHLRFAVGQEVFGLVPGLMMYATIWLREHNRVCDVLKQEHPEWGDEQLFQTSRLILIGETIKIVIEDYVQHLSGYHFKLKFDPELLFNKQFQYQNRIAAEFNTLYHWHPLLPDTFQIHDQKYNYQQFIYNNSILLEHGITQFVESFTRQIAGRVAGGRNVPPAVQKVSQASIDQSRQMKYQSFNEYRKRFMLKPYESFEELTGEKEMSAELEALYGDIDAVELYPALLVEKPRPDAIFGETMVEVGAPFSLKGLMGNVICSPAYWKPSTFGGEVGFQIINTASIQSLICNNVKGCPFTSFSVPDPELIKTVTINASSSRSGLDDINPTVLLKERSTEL

## Cc1c2c(OCc3nnc(SCC(=O)N4CCN(c5ccc(F)cc5F)CC4)o3)nn(C)c(=O)c2c(C)n1-c1ccccc1 [6a, 3,5,7-trimethyl-1-[[2-[2-oxo-2-(4-(2,4-difluorophenyl)piperazin-1-yl)ethyl]sulfanyl-1,3,4-oxadiazol-5-yl]methoxy]-6-phenyl-pyrrolo[3,4-d]pyridazin-4-one]
COX-1
  IC50: 52.3 µM
COX-2
  IC50: 50.2 µM

## Cc1ccc(C)c(N2CCN(Cn3nc(COc4nn(C)c(=O)c5c(C)n(-c6ccccc6)c(C)c45)oc3=S)CC2)c1 [2a, 3,5,7-Trimethyl-6-phenyl-1-[[4-[(4-(2,5-dimethylphenyl)piperazin-1-yl)methyl]-2-thioxo-1,3,4-oxadiazol-5-yl]methoxy]pyrrolo[3,4-d]pyridazin-4-one]
COX-1
  IC50: 50.3 µM
COX-2
  IC50: 49.7 µM

## CCCCn1c(C)c2c(OCc3nnc(SCC(=O)N4CCN(c5ccc(F)cc5F)CC4)o3)nn(C)c(=O)c2c1C [6b, 3,5,7-trimethyl-1-[[2-[2-oxo-2-(4-(2,4-difluorophenyl)piperazin-1-yl)ethyl]sulfanyl-1,3,4-oxadiazol-5-yl]methoxy]-6-butyl-pyrrolo[3,4-d]pyridazin-4-one]
COX-1
  IC50: 51.1 µM
COX-2
  IC50: 50.1 µM

## Cc1ccc(C)c(N2CCN(C(=O)CSc3nnc(COc4nn(C)c(=O)c5c(C)n(-c6ccccc6)c(C)c45)o3)CC2)c1 [5a, 3,5,7-trimethyl-1-[[2-[2-oxo-2-(4-(2,5-dimethylphenyl)piperazin-1-yl)ethyl]sulfanyl-1,3,4-oxadiazol-5-yl]methoxy]-6-phenyl-pyrrolo[3,4-d]pyridazin-4-one]
COX-1
  IC50: 53.2 µM
COX-2
  IC50: 50.1 µM

## CCCCn1c(C)c2c(OCc3nn(CN4CCN(c5ccc(Cl)c(Cl)c5)CC4)c(=S)o3)nn(C)c(=O)c2c1C [4b, 3,5,7-Trimethyl-6-butyl-1-[[4-[(4-(3,4-dichlorophenyl)piperazin-1-yl)methyl]-2-thioxo-1,3,4-oxadiazol-5-yl]methoxy]pyrrolo[3,4-d]pyridazin-4-one]
COX-1
  IC50: 56.8 µM
COX-2
  IC50: 57.3 µM

## Cc1c2c(OCc3n[nH]c(=S)o3)nn(C)c(=O)c2c(C)n1-c1ccccc1 [1a]
COX-1
  IC50: 130 µM
COX-2
  IC50: 43.6 µM

## Cc1c2c(OCc3nnc(SCC(=O)N4CCN(c5ccc(Cl)c(Cl)c5)CC4)o3)nn(C)c(=O)c2c(C)n1-c1ccccc1 [7a, 3,5,7-trimethyl-1-[[2-[2-oxo-2-(4-(3,4-dichloro)piperazin-1-yl)ethyl]sulfanyl-1,3,4-oxadiazol-5-yl]methoxy]-6-phenyl-pyrrolo[3,4-d]pyridazin-4-one]
COX-1
  IC50: 51.6 µM
COX-2
  IC50: 50.3 µM

## CCCCn1c(C)c2c(OCc3nn(CN4CCN(c5ccc(F)cc5F)CC4)c(=S)o3)nn(C)c(=O)c2c1C [3b]
COX-1
  IC50: 54.3 µM
COX-2
  IC50: 56 µM

## CCCCn1c(C)c2c(OCc3nnc(SCC(=O)N4CCN(c5ccc(Cl)c(Cl)c5)CC4)o3)nn(C)c(=O)c2c1C [7b, 3,5,7-trimethyl-1-[[2-[2-oxo-2-(4-(3,4-dichlorophenyl)piperazin-1-yl)ethyl]sulfanyl-1,3,4-oxadiazol-5-yl]methoxy]-6-butyl-pyrrolo[3,4-d]pyridazin-4-one]
COX-1
  IC50: 50.9 µM
COX-2
  IC50: 49.5 µM

## Cc1c2c(OCc3nn(CN4CCN(c5ccc(Cl)c(Cl)c5)CC4)c(=S)o3)nn(C)c(=O)c2c(C)n1-c1ccccc1 [4a, 3,5,7-Trimethyl-6-phenyl-1-[[4-[(4-(3,4-dichlorophenyl)piperazin-1-yl)methyl]-2-thioxo-1,3,4-oxadiazol-5-yl]methoxy]pyrrolo[3,4-d]pyridazin-4-one]
COX-1
  IC50: 50.2 µM
COX-2
  IC50: 49.2 µM

## CCCCn1c(C)c2c(OCc3nn(CN4CCN(c5cc(C)ccc5C)CC4)c(=S)o3)nn(C)c(=O)c2c1C [2b, 3,5,7-Trimethyl-6-butyl-1-[[4-[(4-(2,5-dimethylphenyl)piperazin-1-yl)methyl]-2-thioxo-1,3,4-oxadiazol-5-yl]methoxy]pyrrolo[3,4-d]pyridazin-4-one]
COX-1
  IC50: 50 µM
COX-2
  IC50: 49.4 µM

## CCCCn1c(C)c2c(OCc3nnc(SCC(=O)N4CCN(c5cc(C)ccc5C)CC4)o3)nn(C)c(=O)c2c1C [5b, 3,5,7-trimethyl-1-[[2-[2-oxo-2-(4-(2,5-dimethylphenyl)piperazin-1-yl)ethyl]sulfanyl-1,3,4-oxadiazol-5-yl]methoxy]-6-butyl-pyrrolo[3,4-d]pyridazin-4-one]
COX-1
  IC50: 51.8 µM
COX-2
  IC50: 53.8 µM

## CCCCn1c(C)c2c(OCc3n[nH]c(=S)o3)nn(C)c(=O)c2c1C [1b]
COX-1
  IC50: 138 µM
COX-2
  IC50: 63.4 µM

## Cc1c2c(OCc3nn(CN4CCN(c5ccc(F)cc5F)CC4)c(=S)o3)nn(C)c(=O)c2c(C)n1-c1ccccc1 [3a, 3,5,7-Trimethyl-6-phenyl-1-[[4-[(4-(2,4-difluorophenyl)piperazin-1-yl)methyl]-2-thioxo-1,3,4-oxadiazol-5-yl]methoxy]pyrrolo[3,4-d]pyridazin-4-one]
COX-1
  IC50: 50.3 µM
COX-2
  IC50: 49.7 µM
